# In PMC4917279 (Journal of Medicinal Chemistry, 2016):
# Tested on: KYSE-150 esophageal xenograft
# Type: in vivo
# Settings: (S)-4 500 mg/kg po qd; doxorubicin 10 mg/kg iv once at day 4
smiles,measurement,value
"COc1cccc2c1C(=O)c1c(O)c3c(c(O)c1C2=O)C[C@@](O)(C(=O)CO)C[C@@H]3O[C@H]1C[C@H](N)[C@H](O)[C@H](C)O1 [Doxorubicin, doxorubicin]",Antitumor efficacy relative to vehicle control,no significant antitumor efficacy
